Laboratory results published in paper PMC12146557 (iScience, 2025).

Legend:
HsUbc13 (human Ubc13) = target: T1, HsUbc13 (human Ubc13) (Homo sapiens, UniProt P61088); assay: LC-HRMS of tryptic peptides; format: biochemical
T1 sequence (P61088 1-152): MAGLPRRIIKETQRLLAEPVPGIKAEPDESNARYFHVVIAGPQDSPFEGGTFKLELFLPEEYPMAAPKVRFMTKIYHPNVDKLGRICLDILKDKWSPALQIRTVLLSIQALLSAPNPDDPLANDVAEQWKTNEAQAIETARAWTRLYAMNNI

[1] = target: T2, PfUbc13 (Plasmodium falciparum ubiquitin-conjugating enzyme 13) (Plasmodium falciparum, UniProt Q8I3J4); assay: LC-HRMS of tryptic peptides; format: biochemical
T2 sequence (Q8I3J4 1-152): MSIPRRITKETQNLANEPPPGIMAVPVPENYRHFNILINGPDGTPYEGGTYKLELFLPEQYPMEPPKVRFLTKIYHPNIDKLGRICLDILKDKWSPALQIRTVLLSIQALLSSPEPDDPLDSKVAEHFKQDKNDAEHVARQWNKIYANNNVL
T2 sequence (Q8I5F9 1-1140 partner): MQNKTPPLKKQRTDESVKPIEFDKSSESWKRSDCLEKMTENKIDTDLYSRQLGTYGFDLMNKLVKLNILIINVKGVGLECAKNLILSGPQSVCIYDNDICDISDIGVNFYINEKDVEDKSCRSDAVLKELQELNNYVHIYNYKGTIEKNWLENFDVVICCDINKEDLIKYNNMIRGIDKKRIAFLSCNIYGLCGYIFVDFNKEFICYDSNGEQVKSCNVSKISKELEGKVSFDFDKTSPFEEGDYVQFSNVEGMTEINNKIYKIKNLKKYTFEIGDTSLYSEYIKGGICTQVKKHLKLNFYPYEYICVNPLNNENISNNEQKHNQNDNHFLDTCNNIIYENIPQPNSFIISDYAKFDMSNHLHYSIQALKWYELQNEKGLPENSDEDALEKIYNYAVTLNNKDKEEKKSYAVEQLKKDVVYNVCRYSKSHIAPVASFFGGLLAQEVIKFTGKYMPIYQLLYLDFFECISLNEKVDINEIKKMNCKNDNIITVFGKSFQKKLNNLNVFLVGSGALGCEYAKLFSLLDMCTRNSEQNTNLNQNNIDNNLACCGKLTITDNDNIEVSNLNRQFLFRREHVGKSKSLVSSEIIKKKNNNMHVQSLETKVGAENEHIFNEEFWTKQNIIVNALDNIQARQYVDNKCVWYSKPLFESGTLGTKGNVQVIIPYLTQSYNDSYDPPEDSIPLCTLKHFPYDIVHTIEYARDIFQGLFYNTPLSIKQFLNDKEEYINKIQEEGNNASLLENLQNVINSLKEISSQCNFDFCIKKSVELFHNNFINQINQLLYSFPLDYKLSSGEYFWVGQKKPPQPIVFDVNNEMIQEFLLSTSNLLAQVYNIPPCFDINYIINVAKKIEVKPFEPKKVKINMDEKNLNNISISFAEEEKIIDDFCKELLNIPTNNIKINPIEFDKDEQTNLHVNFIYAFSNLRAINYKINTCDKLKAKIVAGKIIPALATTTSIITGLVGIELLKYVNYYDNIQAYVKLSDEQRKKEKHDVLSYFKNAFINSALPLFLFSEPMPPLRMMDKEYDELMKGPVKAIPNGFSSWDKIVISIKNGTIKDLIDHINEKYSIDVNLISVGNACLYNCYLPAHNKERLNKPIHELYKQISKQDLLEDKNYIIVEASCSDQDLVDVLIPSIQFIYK

With `Cc1ccc(S(=O)(=O)c2ccc([N+](=O)[O-])o2)cc1` [NSC697923] the Ki (HsUbc13 (human Ubc13)) was 280 ± 70 nM and the Ki [1] was 360 ± 110 nM.
